The source made the active and inactive calls. The rule behind the calls is not given here.
Test system: CCRIS mutagenicity, Ames/micronucleus/aberration tests
Assay: CCRIS mutagenicity studies
[1] = Test System: AMES SALMONELLA TYPHIMURIUM, Strain/Indicator: TA98, Metabolic Activation: HAMSTER, LIVER, S-9, AROCLOR 1254, Method: STANDARD PLATE
[2] = Test System: AMES SALMONELLA TYPHIMURIUM, Strain/Indicator: TA98, Metabolic Activation: NONE, Method: STANDARD PLATE
[3] = Test System: AMES SALMONELLA TYPHIMURIUM, Strain/Indicator: TA98, Metabolic Activation: RAT, LIVER, S-9, AROCLOR 1254, Method: STANDARD PLATE
[4] = Test System: AMES SALMONELLA TYPHIMURIUM, Strain/Indicator: TA100, Metabolic Activation: HAMSTER, LIVER, S-9, AROCLOR 1254, Method: STANDARD PLATE
[5] = Test System: AMES SALMONELLA TYPHIMURIUM, Strain/Indicator: TA100, Metabolic Activation: NONE, Method: STANDARD PLATE
[6] = Test System: AMES SALMONELLA TYPHIMURIUM, Strain/Indicator: TA100, Metabolic Activation: RAT, LIVER, S-9, AROCLOR 1254, Method: STANDARD PLATE
[7] = Test System: AMES SALMONELLA TYPHIMURIUM, Strain/Indicator: TA1535, Metabolic Activation: HAMSTER, LIVER, S-9, AROCLOR 1254, Method: STANDARD PLATE
[8] = Test System: AMES SALMONELLA TYPHIMURIUM, Strain/Indicator: TA1535, Metabolic Activation: NONE, Method: STANDARD PLATE
[9] = Test System: AMES SALMONELLA TYPHIMURIUM, Strain/Indicator: TA1535, Metabolic Activation: RAT, LIVER, S-9, AROCLOR 1254, Method: STANDARD PLATE
[10] = Test System: AMES SALMONELLA TYPHIMURIUM, Strain/Indicator: TA1537, Metabolic Activation: HAMSTER, LIVER, S-9, AROCLOR 1254, Method: STANDARD PLATE
[11] = Test System: AMES SALMONELLA TYPHIMURIUM, Strain/Indicator: TA1537, Metabolic Activation: NONE, Method: STANDARD PLATE
[12] = Test System: AMES SALMONELLA TYPHIMURIUM, Strain/Indicator: TA1537, Metabolic Activation: RAT, LIVER, S-9, AROCLOR 1254, Method: STANDARD PLATE
[13] = Test System: AMES SALMONELLA TYPHIMURIUM, Strain/Indicator: TA1538, Metabolic Activation: HAMSTER, LIVER, S-9, AROCLOR 1254, Method: STANDARD PLATE
[14] = Test System: AMES SALMONELLA TYPHIMURIUM, Strain/Indicator: TA1538, Metabolic Activation: NONE, Method: STANDARD PLATE
[15] = Test System: AMES SALMONELLA TYPHIMURIUM, Strain/Indicator: TA1538, Metabolic Activation: RAT, LIVER, S-9, AROCLOR 1254, Method: STANDARD PLATE
[16] = Test System: MOUSE LYMPHOMA, Strain/Indicator: L5178Y (TK+/TK-), Metabolic Activation: NONE, Method: SUSPENSION/PLATE
[17] = Test System: MOUSE LYMPHOMA, Strain/Indicator: L5178Y (TK+/TK-), Metabolic Activation: RAT, LIVER, S-9, AROCLOR 1254, Method: SUSPENSION/PLATE

For `ON=C1CCCCC1`, the mutagenic call (Test System: AMES SALMONELLA TYPHIMURIUM, Strain/Indicator: TA97, Metabolic Activation: HAMSTER, LIVER, S-9, AROCLOR 1254 (30%), Method: PREINCUBATION) was “inactive; negative”, the mutagenic call (Test System: AMES SALMONELLA TYPHIMURIUM, Strain/Indicator: TA97, Metabolic Activation: NONE, Method: PREINCUBATION) was “inactive; negative” and the mutagenic call (Test System: AMES SALMONELLA TYPHIMURIUM, Strain/Indicator: TA97, Metabolic Activation: RAT, LIVER, S-9, AROCLOR 1254 (30%), Method: PREINCUBATION) was “inactive; negative”. For the same compound, the mutagenic call (Test System: AMES SALMONELLA TYPHIMURIUM, Strain/Indicator: TA98, Metabolic Activation: HAMSTER, LIVER, S-9, AROCLOR 1254 (30%), Method: PREINCUBATION) was “inactive; negative”, the mutagenic call [1] was “inactive; negative” and the mutagenic call (Test System: AMES SALMONELLA TYPHIMURIUM, Strain/Indicator: TA98, Metabolic Activation: NONE, Method: PREINCUBATION) was “inactive; negative”. For the same compound, the mutagenic call [2] was “inactive; negative”, the mutagenic call (Test System: AMES SALMONELLA TYPHIMURIUM, Strain/Indicator: TA98, Metabolic Activation: RAT, LIVER, S-9, AROCLOR 1254 (30%), Method: PREINCUBATION) was “inactive; negative” and the mutagenic call [3] was “inactive; negative”. For the same compound, the mutagenic call (Test System: AMES SALMONELLA TYPHIMURIUM, Strain/Indicator: TA100, Metabolic Activation: HAMSTER LIVER S-9, AROCLOR 1254, Method: PREINCUBATION) was “inactive; negative”, the mutagenic call (Test System: AMES SALMONELLA TYPHIMURIUM, Strain/Indicator: TA100, Metabolic Activation: HAMSTER, LIVER, S-9, AROCLOR 1254 (30%), Method: PREINCUBATION) was “inactive; negative” and the mutagenic call [4] was “inactive; negative”. For the same compound, the mutagenic call (Test System: AMES SALMONELLA TYPHIMURIUM, Strain/Indicator: TA100, Metabolic Activation: NONE, Method: PREINCUBATION) was “inactive; negative”, the mutagenic call [5] was “inactive; negative” and the mutagenic call (Test System: AMES SALMONELLA TYPHIMURIUM, Strain/Indicator: TA100, Metabolic Activation: RAT, LIVER, S-9, AROCLOR 1254 (30%), Method: PREINCUBATION) was “inactive; negative”. The mutagenic call [6] was “inactive; negative”, the mutagenic call (Test System: AMES SALMONELLA TYPHIMURIUM, Strain/Indicator: TA1535, Metabolic Activation: HAMSTER LIVER S-9, AROCLOR 1254, Method: PREINCUBATION) was “active; positive” and the mutagenic call (Test System: AMES SALMONELLA TYPHIMURIUM, Strain/Indicator: TA1535, Metabolic Activation: HAMSTER, LIVER, S-9, AROCLOR 1254 (5,10 OR 30%), Method: PREINCUBATION) was “active; positive”. The mutagenic call [7] was “inactive; negative”, the mutagenic call [8] was “inactive; negative” and the mutagenic call (Test System: AMES SALMONELLA TYPHIMURIUM, Strain/Indicator: TA1535, Metabolic Activation: RAT, LIVER, S-9, AROCLOR 1254 (30%), Method: PREINCUBATION) was “inactive; negative”. For the same compound, the mutagenic call [9] was “inactive; negative”, the mutagenic call [10] was “inactive; negative” and the mutagenic call [11] was “inactive; negative”. For the same compound, the mutagenic call [12] was “inactive; negative”, the mutagenic call [13] was “inactive; negative” and the mutagenic call [14] was “inactive; negative”. For the same compound, the mutagenic call [15] was “inactive; negative”, the mutagenic call [16] was “active; positive. reevaluation of results: positive” and the mutagenic call [17] was “inactive; negative. reevaluation of results: negative”.
In the case of `C=C1C(=O)O[C@@H]2[C@H]1CC[C@H](C)[C@@H]1C=CC(=O)[C@@]21C`, the mutagenic call [2] is reported as “inactive; negative”, the mutagenic call [3] is reported as “inactive; negative” and the mutagenic call [5] is reported as “inactive; negative”. For the same compound, the mutagenic call [6] was “inactive; negative”.
`Cc1ccc(N=O)cc1[N+](=O)[O-]` was tested, and the mutagenic call (Test System: AMES SALMONELLA TYPHIMURIUM, Strain/Indicator: TA98, Metabolic Activation: NONE, Method: SUSPENSION/PLATE) was “inactive; negative”, the mutagenic call (Test System: AMES SALMONELLA TYPHIMURIUM, Strain/Indicator: TA98, Metabolic Activation: RAT, LIVER, S-9, PHENOBARBITAL AND 5,6-BENZOFLAVONE, Method: SUSPENSION/PLATE) was “inactive; negative” and the mutagenic call (Test System: AMES SALMONELLA TYPHIMURIUM, Strain/Indicator: TA100, Metabolic Activation: NONE, Method: SUSPENSION/PLATE) was “inactive; negative”. For the same compound, the mutagenic call (Test System: AMES SALMONELLA TYPHIMURIUM, Strain/Indicator: TA100, Metabolic Activation: RAT, LIVER, S-9, PHENOBARBITAL AND 5,6-BENZOFLAVONE, Method: SUSPENSION/PLATE) was “inactive; negative”.
`NC(=O)OCc1ccccc1` was tested, and the mutagenic call (Test System: E. COLI, Strain/Indicator: WP2 UVRA, Metabolic Activation: NONE, Method: FLUCTUATION TEST) was “inactive; negative”.
For `CCC(=O)Oc1ccc(/C(CC)=C(\CC)c2ccc(OC(=O)CC)cc2)cc1`, the mutagenic call [2] was “inactive; negative”, the mutagenic call (Test System: AMES SALMONELLA TYPHIMURIUM, Strain/Indicator: TA98, Metabolic Activation: RAT, LIVER, S-9, Method: STANDARD PLATE) was “inactive; negative” and the mutagenic call [5] was “inactive; negative”. For the same compound, the mutagenic call (Test System: AMES SALMONELLA TYPHIMURIUM, Strain/Indicator: TA100, Metabolic Activation: RAT, LIVER, S-9, Method: STANDARD PLATE) was “inactive; negative”, the mutagenic call [8] was “inactive; negative” and the mutagenic call (Test System: AMES SALMONELLA TYPHIMURIUM, Strain/Indicator: TA1535, Metabolic Activation: RAT, LIVER, S-9, Method: STANDARD PLATE) was “inactive; negative”. For the same compound, the mutagenic call [11] was “inactive; negative”, the mutagenic call (Test System: AMES SALMONELLA TYPHIMURIUM, Strain/Indicator: TA1537, Metabolic Activation: RAT, LIVER, S-9, Method: STANDARD PLATE) was “inactive; negative” and the mutagenic call [14] was “inactive; negative”. For the same compound, the mutagenic call (Test System: AMES SALMONELLA TYPHIMURIUM, Strain/Indicator: TA1538, Metabolic Activation: RAT, LIVER, S-9, Method: STANDARD PLATE) was “inactive; negative”.
`c1ccc2c(c1)ccc1c2ccc2cccnc21` was tested, and the mutagenic call [2] was “inactive; negative”, the mutagenic call [3] was “active; positive” and the mutagenic call [6] was “active; positive”.
For `C[n+]1cccc(C(=O)[O-])c1`, the mutagenic call [1] was “inactive; negative”, the mutagenic call [2] was “inactive; negative” and the mutagenic call (Test System: AMES SALMONELLA TYPHIMURIUM, Strain/Indicator: TA98, Metabolic Activation: RAT LIVER S-9, CHLOROPHENE, Method: STANDARD PLATE (COMPOUND HEATED AT 250 DEGREES CELSIUS FOR 20 MIN)) was “active; positive”. For the same compound, the mutagenic call [3] was “inactive; negative”, the mutagenic call [4] was “inactive; negative” and the mutagenic call [5] was “inactive; negative”. The mutagenic call [6] was “inactive; negative”, the mutagenic call [7] was “inactive; negative” and the mutagenic call [8] was “inactive; negative”. The mutagenic call [9] was “inactive; negative”, the mutagenic call [10] was “inactive; negative” and the mutagenic call [11] was “inactive; negative”. For the same compound, the mutagenic call [12] was “inactive; negative”, the mutagenic call [13] was “inactive; negative” and the mutagenic call [14] was “inactive; negative”. For the same compound, the mutagenic call [15] was “inactive; negative”, the mutagenic call [16] was “inactive; negative. reevaluation of results: inconclusive” and the mutagenic call [17] was “inactive; negative. reevaluation of results: inconclusive”.
